Measured values as given in ChEMBL document CHEMBL4024706 (Eur J Med Chem, 2017).

How the values were obtained:
U2932 = test: Growth inhibition of human U2932 cells; format: functional; conditions: Homo sapiens, U2932
Pfeiffer = test: Induction of apoptosis in human Pfeiffer cells assessed as induction of PARP cleavage after 48 hrs by immunoblot; format: functional, cell-based
[1] = MRT (0 to t) in Sprague-Dawley rat at 10 mg/kg, po by LC-MS/MS method; format: ADME, organism-based; conditions: in vivo
[2] = molecular target: Calcium/calmodulin-dependent protein kinase type 1G (Homo sapiens) (UniProt Q96NX5); test: Inhibition of wild-type human partial length CAMK1G (M1 to A342 residues) expressed in bacterial expression system assessed as residual activity at 1 uM by Kinomescan method relative to control
[3] = molecular target: Peripheral plasma membrane protein CASK (Homo sapiens) (UniProt O14936); test: Inhibition of wild-type human partial length CASK (M1 to H315 residues) expressed in mammalian expression system assessed as residual activity at 1 uM by Kinomescan method relative to control
[4] = molecular target: Cyclin-dependent kinase 11A (Homo sapiens) (UniProt Q9UQ88); test: Inhibition of wild-type human partial length CDC2L2 (D391 to K730 residues) expressed in bacterial expression system assessed as residual activity at 1 uM by Kinomescan method relative to control
[5] = molecular target: Cyclin-dependent kinase 3 (Homo sapiens) (UniProt Q00526); test: Inhibition of wild-type human full length CDK3 (M1 to H305 residues) expressed in bacterial expression system assessed as residual activity at 1 uM by Kinomescan method relative to control
[6] = molecular target: Casein kinase I isoform gamma-2 (Homo sapiens) (UniProt P78368); test: Inhibition of wild-type human full length CSNK1G2 (M1 to K415 residues) expressed in bacterial expression system assessed as residual activity at 1 uM by Kinomescan method relative to control
[7] = molecular target: Ephrin type-A receptor 7 (Homo sapiens) (UniProt Q15375); test: Inhibition of wild-type human partial length EPHA7 (Y608 to S912 residues) expressed in bacterial expression system assessed as residual activity at 1 uM by Kinomescan method relative to control
[8] = molecular target: Mitogen-activated protein kinase 3 (Homo sapiens) (UniProt P27361); test: Inhibition of wild-type human full length ERK1 (M1 to P379 residues) expressed in bacterial expression system assessed as residual activity at 1 uM by Kinomescan method relative to control
[9] = test system: Receptor-type tyrosine-protein kinase FLT3 (Homo sapiens), P36888 [D835Y]; test: Inhibition of human partial length FLT3 D835Y mutant (Q580 to Y969 residues) expressed in bacterial expression system assessed as residual activity at 1 uM by Kinomescan method relative to control
[10] = molecular target: Vascular endothelial growth factor receptor 3 (Homo sapiens) (UniProt P35916); test: Inhibition of wild-type human partial length FLT4 (E821 to E1196 residues) expressed in bacterial expression system assessed as residual activity at 1 uM by Kinomescan method relative to control
[11] = molecular target: Tyrosine-protein kinase FRK (Homo sapiens) (UniProt P42685); test: Inhibition of wild-type human partial length FRK (A215 to F503 residues) expressed in bacterial expression system assessed as residual activity at 1 uM by Kinomescan method relative to control
[12] = test system: Mast/stem cell growth factor receptor Kit (Homo sapiens), P10721 [V559D]; test: Inhibition of human partial length KIT V559D mutant (Y545 to D952 residues) expressed in bacterial expression system assessed as residual activity at 1 uM by Kinomescan method relative to control
[13] = test system: Hepatocyte growth factor receptor (Homo sapiens), P08581 [Y1235D]; test: Inhibition of human partial length MET Y1235D mutant (D1010 to S1367 residues) expressed in bacterial expression system assessed as residual activity at 1 uM by Kinomescan method relative to control
[14] = molecular target: Serine/threonine-protein kinase MRCK alpha (Homo sapiens) (UniProt Q5VT25); test: Inhibition of wild-type human partial length MRCKA (L57 to V418 residues) expressed in bacterial expression system assessed as residual activity at 1 uM by Kinomescan method relative to control
[15] = molecular target: Muscle, skeletal receptor tyrosine-protein kinase (Homo sapiens) (UniProt O15146); test: Inhibition of wild-type human partial length MUSK (M553 to V869 residues) expressed in bacterial expression system assessed as residual activity at 1 uM by Kinomescan method relative to control
[16] = molecular target: Serine/threonine-protein kinase PLK1 (Homo sapiens) (UniProt P53350); test: Inhibition of wild-type human partial length PLK1 (A33 to F325 residues) expressed in mammalian expression system assessed as residual activity at 1 uM by Kinomescan method relative to control
[17] = molecular target: cAMP-dependent protein kinase catalytic subunit PRKX (Homo sapiens) (UniProt P51817); test: Inhibition of wild-type human partial length PRKX (M1 to F358 residues) expressed in bacterial expression system assessed as residual activity at 1 uM by Kinomescan method relative to control
[18] = molecular target: Ribosomal protein S6 kinase alpha-1 (Homo sapiens) (UniProt Q15418); test: Inhibition of wild-type human partial length N-terminal RSK1 Kinase domain 1 (M1 to E388 residues) expressed in bacterial expression system assessed as residual activity at 1 uM by Kinomescan method relative to control
[19] = molecular target: Ribosomal protein S6 kinase alpha-2 (Homo sapiens) (UniProt Q15349); test: Inhibition of wild-type human partial length C-terminal RSK3 kinase domain 2 (V403 to K700 residues) expressed in bacterial expression system assessed as residual activity at 1 uM by Kinomescan method relative to control
[20] = molecular target: Serine/threonine-protein kinase Sgk1 (Homo sapiens) (UniProt O00141); test: Inhibition of wild-type human partial length SGK (I60 to L431 residues) expressed in mammalian expression system assessed as residual activity at 1 uM by Kinomescan method relative to control
[21] = molecular target: SNF-related serine/threonine-protein kinase (Homo sapiens) (UniProt Q9NRH2); test: Inhibition of wild-type human partial length SNRK (M1 to E339 residues) expressed in mammalian expression system assessed as residual activity at 1 uM by Kinomescan method relative to control
[22] = molecular target: Tyrosine-protein kinase receptor Tie-1 (Homo sapiens) (UniProt P35590); test: Inhibition of wild-type human partial length TIE1 (T819 to A1138 residues) expressed in bacterial expression system assessed as residual activity at 1 uM by Kinomescan method relative to control
[23] = molecular target: Dual specificity protein kinase TTK (Homo sapiens) (UniProt P33981); test: Inhibition of wild-type human partial length TTK (N505 to V798 residues) expressed in bacterial expression system assessed as residual activity at 1 uM by Kinomescan method relative to control
[24] = molecular target: Serine/threonine-protein kinase 32B (Homo sapiens) (UniProt Q9NY57); test: Inhibition of wild-type human full length YANK2 (M1 to S414 residues) expressed in bacterial expression system assessed as residual activity at 1 uM by Kinomescan method relative to control

Chain of cAMP-dependent protein kinase catalytic subunit PRKX (Homo sapiens) (P51817 whole entry, the tested form may be a part): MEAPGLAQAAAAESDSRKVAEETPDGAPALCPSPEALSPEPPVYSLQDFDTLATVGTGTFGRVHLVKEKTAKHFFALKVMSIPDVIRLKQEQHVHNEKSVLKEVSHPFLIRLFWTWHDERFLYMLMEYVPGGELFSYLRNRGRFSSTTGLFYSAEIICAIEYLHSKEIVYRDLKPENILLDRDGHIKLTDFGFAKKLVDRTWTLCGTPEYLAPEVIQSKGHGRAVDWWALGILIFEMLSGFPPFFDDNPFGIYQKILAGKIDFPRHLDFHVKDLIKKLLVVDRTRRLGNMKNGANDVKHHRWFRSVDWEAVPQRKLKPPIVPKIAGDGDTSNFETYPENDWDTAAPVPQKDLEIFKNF
Chain of Cyclin-dependent kinase 11A (Homo sapiens) (Q9UQ88 whole entry, the tested form may be a part): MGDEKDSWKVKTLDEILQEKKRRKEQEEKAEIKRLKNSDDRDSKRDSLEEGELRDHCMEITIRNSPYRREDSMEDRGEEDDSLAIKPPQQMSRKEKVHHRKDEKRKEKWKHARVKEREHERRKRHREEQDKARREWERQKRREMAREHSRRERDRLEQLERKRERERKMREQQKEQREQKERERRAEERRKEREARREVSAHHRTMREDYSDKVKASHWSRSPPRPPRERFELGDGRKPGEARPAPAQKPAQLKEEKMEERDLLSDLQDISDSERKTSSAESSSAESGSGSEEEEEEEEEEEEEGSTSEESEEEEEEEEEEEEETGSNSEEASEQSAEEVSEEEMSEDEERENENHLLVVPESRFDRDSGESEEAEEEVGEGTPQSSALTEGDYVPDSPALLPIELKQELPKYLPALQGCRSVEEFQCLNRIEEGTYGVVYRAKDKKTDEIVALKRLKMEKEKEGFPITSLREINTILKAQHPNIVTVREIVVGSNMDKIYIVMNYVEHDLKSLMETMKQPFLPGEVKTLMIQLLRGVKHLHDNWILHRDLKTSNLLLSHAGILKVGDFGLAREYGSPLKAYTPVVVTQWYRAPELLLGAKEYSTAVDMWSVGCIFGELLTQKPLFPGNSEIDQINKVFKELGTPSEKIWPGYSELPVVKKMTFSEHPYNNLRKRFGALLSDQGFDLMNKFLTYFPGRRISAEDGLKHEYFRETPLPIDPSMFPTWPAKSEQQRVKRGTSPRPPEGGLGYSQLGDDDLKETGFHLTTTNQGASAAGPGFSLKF
Chain of Ribosomal protein S6 kinase alpha-1 (Homo sapiens) (Q15418 whole entry, the tested form may be a part): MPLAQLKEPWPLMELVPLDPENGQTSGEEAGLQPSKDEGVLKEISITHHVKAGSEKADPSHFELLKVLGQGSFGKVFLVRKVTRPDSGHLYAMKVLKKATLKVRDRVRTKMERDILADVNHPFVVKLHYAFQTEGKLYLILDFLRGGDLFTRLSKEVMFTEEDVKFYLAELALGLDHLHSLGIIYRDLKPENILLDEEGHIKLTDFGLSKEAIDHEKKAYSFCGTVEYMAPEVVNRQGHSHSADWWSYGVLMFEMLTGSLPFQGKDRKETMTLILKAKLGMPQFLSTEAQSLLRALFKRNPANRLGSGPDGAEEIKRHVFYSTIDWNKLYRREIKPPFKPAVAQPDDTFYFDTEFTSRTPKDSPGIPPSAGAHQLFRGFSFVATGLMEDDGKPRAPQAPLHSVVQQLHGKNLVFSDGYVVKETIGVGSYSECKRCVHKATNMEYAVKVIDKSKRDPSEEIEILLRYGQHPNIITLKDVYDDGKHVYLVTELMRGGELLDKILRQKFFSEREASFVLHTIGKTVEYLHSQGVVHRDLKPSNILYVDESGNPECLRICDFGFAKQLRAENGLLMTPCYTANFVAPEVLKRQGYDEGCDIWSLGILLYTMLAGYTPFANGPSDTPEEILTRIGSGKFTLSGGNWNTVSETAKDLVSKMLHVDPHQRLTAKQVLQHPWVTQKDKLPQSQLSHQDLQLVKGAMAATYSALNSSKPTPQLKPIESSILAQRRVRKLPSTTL
Chain of Vascular endothelial growth factor receptor 3 (Homo sapiens) (P35916 whole entry, the tested form may be a part): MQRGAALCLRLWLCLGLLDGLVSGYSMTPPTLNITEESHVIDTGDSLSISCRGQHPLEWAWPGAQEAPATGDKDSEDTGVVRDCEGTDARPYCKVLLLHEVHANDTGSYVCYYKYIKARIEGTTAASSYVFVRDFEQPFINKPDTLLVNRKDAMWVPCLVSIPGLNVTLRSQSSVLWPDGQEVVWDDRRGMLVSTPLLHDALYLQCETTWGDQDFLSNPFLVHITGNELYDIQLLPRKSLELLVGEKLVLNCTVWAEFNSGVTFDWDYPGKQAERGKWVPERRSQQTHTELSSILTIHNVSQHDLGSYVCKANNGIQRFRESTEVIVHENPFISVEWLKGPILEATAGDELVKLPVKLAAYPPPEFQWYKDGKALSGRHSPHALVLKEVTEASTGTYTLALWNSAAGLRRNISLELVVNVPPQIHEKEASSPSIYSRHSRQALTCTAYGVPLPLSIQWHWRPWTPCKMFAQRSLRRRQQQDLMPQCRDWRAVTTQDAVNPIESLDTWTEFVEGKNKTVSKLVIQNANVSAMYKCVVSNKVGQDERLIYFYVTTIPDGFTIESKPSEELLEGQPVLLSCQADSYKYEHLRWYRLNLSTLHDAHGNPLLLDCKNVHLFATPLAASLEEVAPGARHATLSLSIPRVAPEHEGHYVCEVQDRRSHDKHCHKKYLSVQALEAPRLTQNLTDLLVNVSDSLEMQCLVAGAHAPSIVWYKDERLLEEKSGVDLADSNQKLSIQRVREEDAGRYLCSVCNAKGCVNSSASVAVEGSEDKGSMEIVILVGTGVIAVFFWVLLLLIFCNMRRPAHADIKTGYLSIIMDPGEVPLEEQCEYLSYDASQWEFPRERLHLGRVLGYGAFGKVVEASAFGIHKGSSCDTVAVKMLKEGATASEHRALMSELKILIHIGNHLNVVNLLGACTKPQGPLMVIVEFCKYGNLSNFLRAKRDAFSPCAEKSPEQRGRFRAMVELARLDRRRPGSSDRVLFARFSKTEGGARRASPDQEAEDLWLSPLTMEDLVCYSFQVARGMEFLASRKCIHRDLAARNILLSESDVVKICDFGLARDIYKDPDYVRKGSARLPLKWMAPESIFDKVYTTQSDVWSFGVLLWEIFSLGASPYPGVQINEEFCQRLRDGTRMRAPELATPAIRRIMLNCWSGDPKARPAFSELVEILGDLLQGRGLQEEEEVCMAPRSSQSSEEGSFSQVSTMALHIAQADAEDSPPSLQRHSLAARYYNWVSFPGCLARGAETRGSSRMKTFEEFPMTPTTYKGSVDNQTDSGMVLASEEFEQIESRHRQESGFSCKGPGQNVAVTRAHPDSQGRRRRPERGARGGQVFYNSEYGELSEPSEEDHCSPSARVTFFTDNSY
Chain of Dual specificity protein kinase TTK (Homo sapiens) (P33981 whole entry, the tested form may be a part): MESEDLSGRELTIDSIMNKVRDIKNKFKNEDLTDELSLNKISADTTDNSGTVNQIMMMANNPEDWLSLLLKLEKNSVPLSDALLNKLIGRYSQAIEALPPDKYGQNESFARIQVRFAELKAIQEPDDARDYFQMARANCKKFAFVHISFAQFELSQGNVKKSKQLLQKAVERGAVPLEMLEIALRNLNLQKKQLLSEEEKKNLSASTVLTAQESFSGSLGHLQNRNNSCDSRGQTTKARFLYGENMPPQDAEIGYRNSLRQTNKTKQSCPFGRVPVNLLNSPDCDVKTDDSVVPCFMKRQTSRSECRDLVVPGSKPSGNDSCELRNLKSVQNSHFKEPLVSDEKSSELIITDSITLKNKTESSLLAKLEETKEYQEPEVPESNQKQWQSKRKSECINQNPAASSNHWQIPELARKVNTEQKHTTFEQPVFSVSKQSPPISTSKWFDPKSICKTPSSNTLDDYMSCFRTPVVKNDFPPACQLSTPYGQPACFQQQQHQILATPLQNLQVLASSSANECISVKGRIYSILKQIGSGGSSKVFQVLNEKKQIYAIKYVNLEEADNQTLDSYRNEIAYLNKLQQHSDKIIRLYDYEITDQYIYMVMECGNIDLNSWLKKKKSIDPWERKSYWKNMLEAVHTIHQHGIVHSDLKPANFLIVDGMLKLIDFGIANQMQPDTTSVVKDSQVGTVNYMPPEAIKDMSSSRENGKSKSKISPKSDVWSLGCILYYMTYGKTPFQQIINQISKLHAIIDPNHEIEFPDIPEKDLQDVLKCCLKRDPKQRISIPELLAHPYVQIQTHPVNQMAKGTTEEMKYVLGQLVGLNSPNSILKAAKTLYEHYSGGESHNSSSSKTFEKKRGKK
Chain of Calcium/calmodulin-dependent protein kinase type 1G (Homo sapiens) (Q96NX5 whole entry, the tested form may be a part): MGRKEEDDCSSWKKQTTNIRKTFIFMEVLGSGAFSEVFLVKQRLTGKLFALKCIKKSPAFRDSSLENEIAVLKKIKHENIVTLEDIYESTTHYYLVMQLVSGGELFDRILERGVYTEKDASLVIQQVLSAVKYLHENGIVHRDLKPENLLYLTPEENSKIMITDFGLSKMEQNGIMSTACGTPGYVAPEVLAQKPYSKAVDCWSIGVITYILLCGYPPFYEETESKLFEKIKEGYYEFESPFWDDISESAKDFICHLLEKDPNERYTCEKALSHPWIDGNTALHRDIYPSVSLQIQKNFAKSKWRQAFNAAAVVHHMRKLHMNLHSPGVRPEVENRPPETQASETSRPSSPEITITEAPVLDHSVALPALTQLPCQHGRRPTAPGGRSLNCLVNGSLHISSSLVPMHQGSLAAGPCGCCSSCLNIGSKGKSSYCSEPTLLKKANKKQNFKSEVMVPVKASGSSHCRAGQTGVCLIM
Chain of Casein kinase I isoform gamma-2 (Homo sapiens) (P78368 whole entry, looked up, the tested form may be a part, canonical isoform): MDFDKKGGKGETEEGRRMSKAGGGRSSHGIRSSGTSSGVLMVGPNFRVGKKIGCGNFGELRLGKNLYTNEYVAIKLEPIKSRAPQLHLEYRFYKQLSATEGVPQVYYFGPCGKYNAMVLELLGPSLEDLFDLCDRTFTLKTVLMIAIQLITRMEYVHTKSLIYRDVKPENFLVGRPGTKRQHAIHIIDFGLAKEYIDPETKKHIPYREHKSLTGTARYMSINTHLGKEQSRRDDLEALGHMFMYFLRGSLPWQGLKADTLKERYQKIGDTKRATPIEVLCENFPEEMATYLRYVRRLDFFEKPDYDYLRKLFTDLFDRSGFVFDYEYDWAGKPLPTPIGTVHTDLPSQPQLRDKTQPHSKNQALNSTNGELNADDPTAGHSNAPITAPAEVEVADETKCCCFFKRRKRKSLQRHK

C=CC(=O)Nc1cc(Nc2cc(-c3cccc(NC(=O)c4ccc(C(C)(C)C)cc4)c3C)cn(C)c2=O)ccc1C(=O)N1CCOCC1
GI50 (U2932): 2400 nM | Activity (Pfeiffer): Dose-dependent effect | MRT last [1]: 1.36 h | Activity [2]: 100% | Activity [3]: 95% | Activity [4]: 94% | Activity [5]: 97% | Activity [6]: 94% | Activity [7]: 98% | Activity [8]: 99% | Activity [9]: 97% | Activity [10]: 100% | Activity [11]: 84% | Activity [12]: 93% | Activity [13]: 89% | Activity [14]: 98% | Activity [15]: 91% | Activity [16]: 100% | Activity [17]: 98% | Activity [18]: 87% | Activity [19]: 83% | Activity [20]: 95% | Activity [21]: 80% | Activity [22]: 87% | Activity [23]: 99% | Activity [24]: 100%
